Type in all cases: biochemical
One assay deals with T1, IGFR-1 (Homo sapiens, UniProt P08069).
T1 construct: Kinases are expressed as either kinase domains or full length constructs; made in house
Put plainly: Kinase inhibition assay, IGFR-1 (Table 2). As to conditions: Table 2, kinase inhibition class.

Another assay concerns the target T2, c-Met (Homo sapiens, UniProt P08581).
T2 construct: Kinases are expressed as either kinase domains or full length constructs; made in house
The experiment in a line: Kinase inhibition assay (33P transfer), c-Met. The note with it: Table 2, kinase inhibition class; read-out: Met-1. The method in brief:
(§1)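 Using immobilised substrate copolymers (poly(Glu,Tyr) 4:1; poly(Arg,Ser) 3:1) and [33P]ATP, purified fusion kinases were allowed to react; plates were then rinsed in 0.5% phosphoric acid and counted in a scintillation detector. Half-maximal inhibition of label transfer defines IC50.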

For the next assay, the target named is T3, PDGFRB (Homo sapiens, UniProt P09619).
T3 construct: Kinases are expressed as either kinase domains or full length constructs; made in house
Put plainly: Kinase inhibition assay (33P transfer), PDGFRB. As to conditions: read-out: PDGFRB-1.

A further assay deals with T4, EGFR (Homo sapiens, UniProt P00533).
T4 construct: Kinases are expressed as either kinase domains or full length constructs; made in house
The experiment in a line: Kinase inhibition assay (33P transfer), EGFR. The note with it: Table 2, kinase inhibition class; read-out: EGFR-1. In short, it runs like this:
as §1

A further assay deals with T5, Zap-70 (Homo sapiens, UniProt P43403).
T5 construct: Kinases are expressed as either kinase domains or full length constructs; made in house
T5 sequence (P43403 1-619): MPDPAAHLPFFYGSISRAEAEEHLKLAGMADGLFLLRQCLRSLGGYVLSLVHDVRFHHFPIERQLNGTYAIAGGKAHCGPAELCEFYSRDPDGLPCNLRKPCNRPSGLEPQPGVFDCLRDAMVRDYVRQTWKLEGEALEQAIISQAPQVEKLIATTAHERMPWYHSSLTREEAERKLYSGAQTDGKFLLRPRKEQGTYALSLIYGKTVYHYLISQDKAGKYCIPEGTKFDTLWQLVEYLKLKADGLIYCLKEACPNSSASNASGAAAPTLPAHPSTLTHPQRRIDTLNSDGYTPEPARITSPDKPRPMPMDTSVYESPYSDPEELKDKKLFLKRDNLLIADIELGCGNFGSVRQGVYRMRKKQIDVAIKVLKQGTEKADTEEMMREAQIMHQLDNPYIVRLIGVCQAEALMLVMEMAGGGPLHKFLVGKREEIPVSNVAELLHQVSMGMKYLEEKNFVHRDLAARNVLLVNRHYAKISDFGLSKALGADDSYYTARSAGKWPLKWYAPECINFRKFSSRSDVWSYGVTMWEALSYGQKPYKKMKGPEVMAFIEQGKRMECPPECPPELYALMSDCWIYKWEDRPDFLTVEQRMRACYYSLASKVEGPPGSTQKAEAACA
Put plainly: Kinase inhibition assay (33P transfer), Zap-70. The note with it: read-out: Zap-1. In short, it runs like this: (§2)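 Activity was read as 33P incorporation, counted by liquid scintillation after a 0.5% phosphoric acid wash, into poly(Glu,Tyr) 4:1 or poly(Arg,Ser) 3:1 substrates coated on plates. Enzymes were tagged (GST or polyHis) kinase domains or full-length proteins from bacterial or insect-cell expression, sometimes with regulatory polypeptides.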

The next assay addresses T6, Kdr (Homo sapiens, UniProt P35968).
T6 construct: Kinases are expressed as either kinase domains or full length constructs; made in house
The experiment in a line: Kinase inhibition assay (33P transfer), Kdr. The note with it: read-out: KDR-1. In short, it runs like this: as §2

Another assay deals with T7, Itk (Homo sapiens, UniProt Q08881).
T7 construct: Kinases are expressed as either kinase domains or full length constructs; made in house
T7 sequence (Q08881 1-620): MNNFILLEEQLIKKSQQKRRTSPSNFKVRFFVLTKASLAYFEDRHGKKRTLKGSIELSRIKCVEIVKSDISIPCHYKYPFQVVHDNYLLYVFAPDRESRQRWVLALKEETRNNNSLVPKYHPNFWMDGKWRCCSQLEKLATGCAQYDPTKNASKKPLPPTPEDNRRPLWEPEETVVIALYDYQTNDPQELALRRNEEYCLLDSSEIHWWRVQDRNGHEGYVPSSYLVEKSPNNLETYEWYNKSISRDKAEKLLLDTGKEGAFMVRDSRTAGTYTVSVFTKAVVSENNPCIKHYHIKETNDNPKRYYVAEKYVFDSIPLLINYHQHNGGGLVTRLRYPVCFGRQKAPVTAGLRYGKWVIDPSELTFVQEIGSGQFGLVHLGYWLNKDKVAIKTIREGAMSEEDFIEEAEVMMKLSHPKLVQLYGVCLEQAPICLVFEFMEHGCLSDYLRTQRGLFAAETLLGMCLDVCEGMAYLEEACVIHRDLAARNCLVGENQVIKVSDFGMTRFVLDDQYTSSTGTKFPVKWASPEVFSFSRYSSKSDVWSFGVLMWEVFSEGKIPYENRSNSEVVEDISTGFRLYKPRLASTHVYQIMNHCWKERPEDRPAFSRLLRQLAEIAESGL
Put plainly: Kinase inhibition assay (33P transfer), Itk. As to conditions: read-out: Itk-1. In short, it runs like this:
as §1

In a further assay the target is T8, Lck (Homo sapiens, UniProt P06239).
T8 construct: Kinases are expressed as either kinase domains or full length constructs; made in house
The experiment in a line: Kinase inhibition assay (33P transfer), Lck. As to conditions: read-out: Lck-1. The method in brief: as §2

The target in a further assay is T9, ErbB2 (Homo sapiens, UniProt P04626).
T9 construct: Kinases are expressed as either kinase domains or full length constructs; made in house
The experiment in a line: Kinase inhibition assay (33P transfer), ErbB2. As to conditions: read-out: ErbB2-2. The method in brief:
as §1

The next assay addresses T10, AKT (Homo sapiens, UniProt Q9Y243).
T10 construct: Kinases are expressed as either kinase domains or full length constructs; made in house
Put plainly: Kinase inhibition assay (33P transfer), AKT. As to conditions: Table 2, kinase inhibition class; read-out: AKT3-1. The method in brief:
as §2

T2 sequence (P08581 25-1390): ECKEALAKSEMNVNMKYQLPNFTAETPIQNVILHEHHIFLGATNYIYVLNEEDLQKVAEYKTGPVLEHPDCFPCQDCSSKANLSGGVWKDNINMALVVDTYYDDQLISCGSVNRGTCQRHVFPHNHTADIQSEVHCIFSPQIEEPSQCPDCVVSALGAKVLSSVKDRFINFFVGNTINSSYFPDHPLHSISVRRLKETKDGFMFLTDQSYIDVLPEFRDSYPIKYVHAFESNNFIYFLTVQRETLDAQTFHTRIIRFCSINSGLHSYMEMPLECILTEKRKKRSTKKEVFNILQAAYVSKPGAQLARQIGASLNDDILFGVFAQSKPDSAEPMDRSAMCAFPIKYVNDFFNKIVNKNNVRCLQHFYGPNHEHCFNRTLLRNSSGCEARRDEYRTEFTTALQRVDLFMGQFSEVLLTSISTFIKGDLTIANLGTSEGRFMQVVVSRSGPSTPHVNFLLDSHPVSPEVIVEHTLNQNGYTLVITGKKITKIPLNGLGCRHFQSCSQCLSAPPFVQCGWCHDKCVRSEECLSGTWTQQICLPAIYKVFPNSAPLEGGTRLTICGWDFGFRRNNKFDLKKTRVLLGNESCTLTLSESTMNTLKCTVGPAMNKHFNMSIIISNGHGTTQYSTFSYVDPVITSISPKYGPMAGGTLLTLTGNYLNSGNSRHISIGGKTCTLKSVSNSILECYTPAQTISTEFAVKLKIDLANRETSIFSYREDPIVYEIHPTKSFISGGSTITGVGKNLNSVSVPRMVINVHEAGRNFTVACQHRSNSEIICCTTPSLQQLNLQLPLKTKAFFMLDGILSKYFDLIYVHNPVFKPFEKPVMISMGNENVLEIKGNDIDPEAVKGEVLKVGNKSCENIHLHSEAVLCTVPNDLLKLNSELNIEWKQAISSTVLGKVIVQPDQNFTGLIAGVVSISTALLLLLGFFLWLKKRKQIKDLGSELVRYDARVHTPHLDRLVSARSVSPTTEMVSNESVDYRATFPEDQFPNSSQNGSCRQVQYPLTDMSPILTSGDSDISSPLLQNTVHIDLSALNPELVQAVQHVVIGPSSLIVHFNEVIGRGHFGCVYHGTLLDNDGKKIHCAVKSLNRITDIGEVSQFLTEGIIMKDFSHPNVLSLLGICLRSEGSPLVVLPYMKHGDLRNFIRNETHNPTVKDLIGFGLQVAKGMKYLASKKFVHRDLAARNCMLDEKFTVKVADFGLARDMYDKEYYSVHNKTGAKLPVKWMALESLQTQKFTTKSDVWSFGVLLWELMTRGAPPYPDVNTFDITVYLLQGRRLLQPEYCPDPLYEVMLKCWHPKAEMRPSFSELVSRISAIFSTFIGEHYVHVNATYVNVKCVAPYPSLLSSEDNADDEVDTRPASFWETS
T3 sequence (P09619 33-1106, species assumed): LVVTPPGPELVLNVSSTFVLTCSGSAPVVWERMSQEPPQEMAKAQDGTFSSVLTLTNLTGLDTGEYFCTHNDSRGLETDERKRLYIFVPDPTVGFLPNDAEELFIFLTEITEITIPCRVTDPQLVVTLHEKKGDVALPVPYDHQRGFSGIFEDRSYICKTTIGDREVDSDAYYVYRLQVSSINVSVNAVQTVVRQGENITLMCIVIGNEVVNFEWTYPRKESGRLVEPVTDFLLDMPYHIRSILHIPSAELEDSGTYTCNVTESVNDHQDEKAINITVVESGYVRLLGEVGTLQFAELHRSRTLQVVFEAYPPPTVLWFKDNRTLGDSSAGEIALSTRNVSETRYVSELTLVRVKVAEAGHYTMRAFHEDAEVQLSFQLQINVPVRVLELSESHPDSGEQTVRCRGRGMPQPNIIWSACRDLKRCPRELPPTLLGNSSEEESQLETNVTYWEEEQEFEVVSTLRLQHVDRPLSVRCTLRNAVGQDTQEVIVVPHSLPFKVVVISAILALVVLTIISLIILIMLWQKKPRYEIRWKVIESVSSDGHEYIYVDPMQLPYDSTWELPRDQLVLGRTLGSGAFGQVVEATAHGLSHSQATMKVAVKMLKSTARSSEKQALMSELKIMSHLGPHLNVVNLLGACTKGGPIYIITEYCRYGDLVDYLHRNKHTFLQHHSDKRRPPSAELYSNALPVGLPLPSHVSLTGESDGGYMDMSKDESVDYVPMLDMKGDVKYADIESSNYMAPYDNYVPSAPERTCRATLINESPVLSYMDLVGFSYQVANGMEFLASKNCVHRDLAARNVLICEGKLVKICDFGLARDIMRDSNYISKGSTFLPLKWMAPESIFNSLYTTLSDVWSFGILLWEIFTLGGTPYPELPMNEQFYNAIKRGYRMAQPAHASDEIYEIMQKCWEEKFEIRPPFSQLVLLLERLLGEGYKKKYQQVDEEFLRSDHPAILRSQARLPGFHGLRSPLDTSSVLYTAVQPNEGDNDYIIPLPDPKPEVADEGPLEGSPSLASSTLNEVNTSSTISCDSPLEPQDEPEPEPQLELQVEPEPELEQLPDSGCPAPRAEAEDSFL
T8 sequence (P06239 whole entry, species assumed, the tested form may be a part): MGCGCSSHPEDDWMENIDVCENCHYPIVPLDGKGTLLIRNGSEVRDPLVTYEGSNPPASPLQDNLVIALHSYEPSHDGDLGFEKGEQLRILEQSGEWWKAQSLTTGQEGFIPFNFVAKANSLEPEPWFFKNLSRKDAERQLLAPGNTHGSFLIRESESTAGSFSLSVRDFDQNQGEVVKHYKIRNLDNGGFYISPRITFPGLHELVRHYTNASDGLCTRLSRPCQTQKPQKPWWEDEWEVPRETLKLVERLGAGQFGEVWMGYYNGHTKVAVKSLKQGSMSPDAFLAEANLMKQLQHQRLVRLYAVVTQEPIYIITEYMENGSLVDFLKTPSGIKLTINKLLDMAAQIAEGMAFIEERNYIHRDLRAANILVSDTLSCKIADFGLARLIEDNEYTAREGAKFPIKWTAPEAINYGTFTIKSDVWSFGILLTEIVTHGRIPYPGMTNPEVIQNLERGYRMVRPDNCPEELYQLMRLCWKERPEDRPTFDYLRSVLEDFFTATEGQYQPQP
T9 sequence (P04626 23-1255, species assumed): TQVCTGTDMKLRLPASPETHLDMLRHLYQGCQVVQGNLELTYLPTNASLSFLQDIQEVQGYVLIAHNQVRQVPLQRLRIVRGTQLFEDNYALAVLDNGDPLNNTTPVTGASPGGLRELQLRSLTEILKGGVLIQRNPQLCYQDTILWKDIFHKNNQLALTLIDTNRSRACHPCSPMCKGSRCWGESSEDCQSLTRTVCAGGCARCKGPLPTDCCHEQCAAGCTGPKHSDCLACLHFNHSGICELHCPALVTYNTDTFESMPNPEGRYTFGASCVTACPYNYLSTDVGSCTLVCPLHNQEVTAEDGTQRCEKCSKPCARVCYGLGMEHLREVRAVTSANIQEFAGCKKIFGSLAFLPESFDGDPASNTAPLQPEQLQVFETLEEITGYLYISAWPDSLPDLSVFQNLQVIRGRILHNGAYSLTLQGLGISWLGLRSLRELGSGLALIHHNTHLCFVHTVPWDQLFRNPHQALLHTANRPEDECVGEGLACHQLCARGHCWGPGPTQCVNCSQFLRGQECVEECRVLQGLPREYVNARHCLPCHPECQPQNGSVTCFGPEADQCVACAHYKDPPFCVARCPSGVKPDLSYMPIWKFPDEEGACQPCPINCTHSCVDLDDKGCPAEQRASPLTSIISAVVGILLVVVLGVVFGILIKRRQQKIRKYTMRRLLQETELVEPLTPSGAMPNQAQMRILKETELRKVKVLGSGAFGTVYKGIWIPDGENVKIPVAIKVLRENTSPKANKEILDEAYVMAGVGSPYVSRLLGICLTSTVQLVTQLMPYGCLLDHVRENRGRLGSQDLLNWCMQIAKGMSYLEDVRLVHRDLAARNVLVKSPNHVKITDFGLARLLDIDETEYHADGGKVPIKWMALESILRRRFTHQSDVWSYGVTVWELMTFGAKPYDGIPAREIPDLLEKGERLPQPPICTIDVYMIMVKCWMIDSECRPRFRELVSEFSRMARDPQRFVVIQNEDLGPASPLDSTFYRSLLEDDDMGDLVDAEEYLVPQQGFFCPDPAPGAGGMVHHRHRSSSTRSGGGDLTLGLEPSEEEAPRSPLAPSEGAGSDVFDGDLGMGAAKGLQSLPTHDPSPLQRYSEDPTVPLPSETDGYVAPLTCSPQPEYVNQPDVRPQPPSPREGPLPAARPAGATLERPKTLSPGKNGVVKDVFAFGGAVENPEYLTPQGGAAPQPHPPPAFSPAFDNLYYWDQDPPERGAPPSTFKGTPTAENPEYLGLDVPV
T10 sequence (Q9Y243 whole entry, the tested form may be a part): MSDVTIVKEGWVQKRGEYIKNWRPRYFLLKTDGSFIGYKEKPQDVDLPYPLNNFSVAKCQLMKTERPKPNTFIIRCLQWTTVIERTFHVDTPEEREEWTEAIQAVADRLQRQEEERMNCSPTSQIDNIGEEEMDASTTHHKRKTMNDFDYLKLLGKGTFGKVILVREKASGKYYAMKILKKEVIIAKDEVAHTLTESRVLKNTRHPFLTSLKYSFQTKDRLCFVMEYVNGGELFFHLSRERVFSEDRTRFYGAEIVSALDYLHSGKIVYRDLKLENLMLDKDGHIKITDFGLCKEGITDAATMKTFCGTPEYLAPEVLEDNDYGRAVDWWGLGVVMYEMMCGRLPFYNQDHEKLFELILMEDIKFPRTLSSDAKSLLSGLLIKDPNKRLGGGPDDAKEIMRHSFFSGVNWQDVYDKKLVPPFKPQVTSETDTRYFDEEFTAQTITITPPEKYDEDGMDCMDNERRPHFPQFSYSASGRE

As to `COc1cc(Nc2ncnc(Nc3cc(OC)c(OCCN4CCOCC4)c(OC)c3)n2)cc(OC)c1OC` [Compound 562], the IC50 against IGFR-1 is 4.42 to 6.45 µM; at c-Met, more than 8.29 µM; at PDGFRB, 4.42 to 6.45 µM; on EGFR, less than 0.737 µM; at Zap-70 it was more than 8.29 µM; at Kdr, 4.42 to 6.45 µM. Further, the IC50 is more than 8.29 µM on Itk, less than 0.737 µM at Lck, 4.42 to 6.45 µM at ErbB2 and more than 8.29 µM on AKT.
On to `c1ccc(Cn2ncc3cc(Nc4ncnc(Nc5ncccn5)n4)ccc32)cc1` [Compound 738], for which the IC50 at IGFR-1 is 1.01 to 6.07 µM; on c-Met, more than 11.4 µM; on PDGFRB, more than 11.4 µM; on EGFR, 1.01 to 6.07 µM; on Zap-70, more than 11.4 µM; at Kdr, more than 11.4 µM. In addition, the IC50 on Itk is 1.01 to 6.07 µM; at Lck, more than 11.4 µM; on ErbB2 it was 6.07 to 8.85 µM; at AKT it was more than 11.4 µM.
On to `CN(c1cccc(Cl)c1)c1ncnc(Nc2ccc(CC(=O)O)cc2)n1` [Compound 705], for which the IC50 is more than 12.2 µM against IGFR-1; more than 12.2 µM at c-Met; more than 12.2 µM at PDGFRB; less than 1.08 µM on EGFR; more than 12.2 µM at Zap-70; 9.46 to 12.2 µM at Kdr. Also, the IC50 was more than 12.2 µM at Itk, more than 12.2 µM on Lck, 1.08 to 6.49 µM on ErbB2 and more than 12.2 µM at AKT.
On to `CC(=O)Nc1ccc(Nc2ncnc(N3CCCc4cc(C)ccc43)n2)cc1` [Compound 760], for which the IC50 at IGFR-1 is more than 12 µM; at c-Met, 1.07 to 6.41 µM; at PDGFRB it was 1.07 to 6.41 µM; on EGFR, less than 1.07 µM; at Zap-70, more than 12 µM; on Kdr, 1.07 to 6.41 µM. The IC50 is more than 12 µM at Itk, 1.07 to 6.41 µM on Lck, 1.07 to 6.41 µM on ErbB2 and more than 12 µM at AKT.
Turning to `NC(=O)Cc1ccc(Nc2ncnc(Nc3cc(-c4ccccc4)n[nH]3)n2)cc1` [Compound 573], the IC50 against IGFR-1 was less than 1.04 µM; at c-Met, 1.04 to 6.21 µM; at PDGFRB, 1.04 to 6.21 µM; on EGFR it was 1.04 to 6.21 µM; at Zap-70, 6.21 to 9.06 µM; at Kdr it was less than 1.04 µM. The IC50 at Itk is 1.04 to 6.21 µM; on Lck it was less than 1.04 µM; at ErbB2, 6.21 to 9.06 µM; at AKT, 6.21 to 9.06 µM.
Take `COc1ccc(Nc2ncnc(NCC(O)c3ccccc3)n2)cc1OC` (centres unmarked) [Compound 780]: the IC50 on IGFR-1 was more than 12.2 µM; on c-Met, more than 12.2 µM; on PDGFRB, 9.53 to 12.2 µM; at EGFR, 9.53 to 12.2 µM; at Zap-70 it was more than 12.2 µM; on Kdr it was more than 12.2 µM. Besides, the IC50 at Itk is more than 12.2 µM; on Lck, 6.53 to 9.53 µM; on ErbB2, more than 12.2 µM; at AKT it was more than 12.2 µM.
As for `COC(=O)c1ccc(-c2cc(Nc3ncnc(Nc4ccc(CO)cc4)n3)[nH]n2)cc1` [Compound 989], the IC50 at IGFR-1 is 8.38 to 10.8 µM; on c-Met it was 8.38 to 10.8 µM; at PDGFRB it was more than 10.8 µM; at EGFR, 0.958 to 5.75 µM; at Zap-70, more than 10.8 µM; on Kdr, 8.38 to 10.8 µM. Besides, the IC50 at Itk is 8.38 to 10.8 µM; on Lck, more than 10.8 µM; at ErbB2 it was more than 10.8 µM; at AKT, more than 10.8 µM.
For the compound `Nc1nc2ccccc2n1-c1ncnc(Nc2cccc(CC(=O)NCc3ccccn3)c2)n1` [Compound 956], the IC50 at IGFR-1 was less than 0.886 µM; on c-Met, 7.75 to 9.97 µM; on PDGFRB, 5.32 to 7.75 µM; on EGFR, more than 9.97 µM; on Zap-70, more than 9.97 µM; on Kdr, less than 0.886 µM. The IC50 is 0.886 to 5.32 µM at Itk, 5.32 to 7.75 µM at Lck, more than 9.97 µM at ErbB2 and more than 9.97 µM on AKT.
For `COCCCNc1ncnc(N2CCCc3cc(C)ccc32)n1` [Compound 762], the IC50 at IGFR-1 is more than 14.4 µM; on c-Met it was more than 14.4 µM; at PDGFRB, more than 14.4 µM; on EGFR, 11.2 to 14.4 µM; on Zap-70 it was more than 14.4 µM; on Kdr, more than 14.4 µM. The IC50 at Itk, at Lck, on ErbB2 and at AKT was more than 14.4 µM in each case.
In the case of `COc1cc(Nc2ncnc(N[C@H]3CCCc4ccccc43)n2)cc(OC)c1OC` [Compound 619], the IC50 at IGFR-1 is more than 11 µM; on c-Met, more than 11 µM; at PDGFRB it was more than 11 µM; at EGFR it was 8.59 to 11 µM; on Zap-70 it was more than 11 µM; on Kdr, 5.89 to 8.59 µM. The IC50 at Itk is more than 11 µM; at Lck, 5.89 to 8.59 µM; at ErbB2 it was 8.59 to 11 µM; at AKT, 8.59 to 11 µM.
`CN(c1ccc(F)c(Cl)c1)c1ncnc(Nc2cccc(Br)c2)n1` [Compound 713]: the IC50 is more than 11 µM against IGFR-1; more than 11 µM at c-Met; more than 11 µM at PDGFRB; more than 11 µM at EGFR; more than 11 µM on Zap-70; 0.979 to 5.87 µM at Kdr. Further, the IC50 on Itk, on Lck, at ErbB2 and on AKT was more than 11 µM throughout.
As to `CN1CCN(Cc2cccc(Nc3ncnc(Nc4cccc5ccccc45)n3)c2)CC1` [Compound 551], the IC50 against IGFR-1 was more than 10.6 µM; on c-Met, 8.22 to 10.6 µM; on PDGFRB it was more than 10.6 µM; at EGFR, more than 10.6 µM; on Zap-70, more than 10.6 µM; at Kdr it was more than 10.6 µM. In addition, the IC50 at Itk, at Lck, at ErbB2 and at AKT was more than 10.6 µM throughout.
Regarding `Cc1cccc(Nc2ncnc(N(C)c3cccc(Cl)c3)n2)c1` [Compound 709], the IC50 on IGFR-1 was more than 13.8 µM; at c-Met it was 1.23 to 7.37 µM; at PDGFRB, 7.37 to 10.7 µM; on EGFR it was less than 1.23 µM; at Zap-70, more than 13.8 µM; at Kdr, more than 13.8 µM. In addition, the IC50 was more than 13.8 µM on Itk, 7.37 to 10.7 µM at Lck, 1.23 to 7.37 µM on ErbB2 and more than 13.8 µM on AKT.
For the compound `COc1cc(Nc2ncnc(-c3cccnc3Nc3cccc(C(N)=O)c3)n2)cc(OC)c1OC` [Compound 1090], the IC50 against IGFR-1 was 7.39 to 9.5 µM; at c-Met, 7.39 to 9.5 µM; on PDGFRB, less than 0.845 µM; on EGFR it was more than 9.5 µM; at Zap-70 it was more than 9.5 µM; at Kdr it was less than 0.845 µM. Besides, the IC50 is more than 9.5 µM at Itk, less than 0.845 µM at Lck, more than 9.5 µM on ErbB2 and more than 9.5 µM on AKT.

These data come from patent US7074789B2, “Kinase inhibitors” (Amgen Inc., priority 1999, dated 2006).
